17 compounds from PubChem BioAssay AID602307 (Southern Research Specialized Biocontainment Screening …, 2012) can be followed below.

This test has as its system VEEV TC-83 infected cells, virus titer reduction. As to the kind of experiment: VEEV titer reduction by compounds, cell-based, TC-83 strain, virus titer (AID 602307). As to conditions: for log virus titer change: stronger effect = lower value.

Structures are written as SMILES. Activity calls are given as the source filed them. No rule for the calls is given here.

For the compound `O=C(Cc1ccccc1)Nc1nc2c(s1)CCCC2`, the log virus titer change (at 5 µM) is -0.01 (inactive).

With `Cc1ccccc1C(=O)Nc1ccc2c(c1)CCCN2C(=O)c1cccs1`, the result was active. Under “titer change, at 10 µM”, this compound showed a log virus titer change of -2.04. The matching figures for `O=c1c2cc([N+](=O)[O-])ccc2nc(CN2CCN(c3ccccc3)CC2)n1-c1ccccc1F`: “active” and -1.3. For the compound `O=C(Cc1cccs1)Nc1nccs1`, the log virus titer change (at 5 µM) is -0.062 (inactive).

Consider `O=C(Cc1cccs1)Nc1nc2c(s1)CCCC2`, for which the result was active. The compound also registered a log virus titer change (titer change, at 10 µM) of -2.14. For the compound `O=c1c2cc([N+](=O)[O-])ccc2nc(CN2CCOCC2)n1-c1ccccc1F`, under “at 5 µM”, the log virus titer change is 0.297 (inactive). For the compound `O=C(Oc1ccc2ccccc2c1Br)N1CCCCCC1`, the result was active. The compound also had a log virus titer change (titer change, at 10 µM) of -2.09. Consider `Cc1cc(Cc2cc(C)cc(C(C)(C)C)c2O)c(O)c(Cc2cc(C)cc(C(C)(C)C)c2O)c1`, for which the log virus titer change (at 5 µM) is -0.734 (inactive). Same read-out and setting: under `CN1CCN(Cc2nc3ccc([N+](=O)[O-])cc3c(=O)n2-c2ccccc2F)CC1` stands less than -6.36. The same measure, in the same setting: under `CN(C(=O)Cc1cccs1)c1nc2c(s1)CCCC2` stands 0.281 (inactive); under `O=C(Nc1nc2c(s1)CCCC2)c1cccs1`, -0.12 (inactive). `Clc1ccc2nnnc(-c3ccccc3)c2c1`: the result was active. Under “titer change, at 10 µM”, this compound gave a log virus titer change of -4.36. As to `CCN1CCN(Cc2nc3ccc([N+](=O)[O-])cc3c(=O)n2-c2ccccc2F)CC1`, the log virus titer change is, setting by setting: (at 5 µM) less than -6.36; (titer change, at 10 µM) -5.8. As for `O=c1nc(Nc2ccc(OCc3ccccc3)cc2)sc2ncccc12`, the result was active. Moreover, the log virus titer change (titer change, at 10 µM) was -3.43. As for `O=C(Cc1cccs1)Nc1nc2ccccc2s1`, the log virus titer change (at 5 µM) is -0.238 (inactive). The same measure, in the same setting: the result for `CC(C)N1CCN(Cc2nc3ccc([N+](=O)[O-])cc3c(=O)n2-c2ccccc2F)CC1` reads 0.041 (inactive).

For the compound `CCOC(=O)c1ccc(Nc2nc(=O)c3cccnc3s2)cc1`, the result was active. The compound also displayed a log virus titer change (titer change, at 10 µM) of -3.31.
